# Measurements from the supplement of paper PMC10307832.
# Key:
# Assay in all cases: relative viability (nuclei count vs DMSO), 5 days (fraction); higher = more cells survive
# Vandetanib + Navitoclax = compound: COc1cc2/c(=N/c3ccc(Br)cc3F)nc[nH]c2cc1OCC1CCN(C)CC1 [Vandetanib] + CC1(C)CCC(c2ccc(Cl)cc2)=C(CN2CCN(c3ccc(C(=O)NS(=O)(=O)c4ccc(N[C@H](CCN5CCOCC5)CSc5ccccc5)c(S(=O)(=O)C(F)(F)F)c4)cc3)CC2)C1 [Navitoclax] (partner 0.5 µM)
# Outline: (§1)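 Dosing by pin tool came one day after lung cancer cell lines were seeded in 1536-well plates, using either one drug or a fixed anchor-drug dose plus five library-drug doses (not always all listed) in √10 steps. After 5 days, nuclei were counted on 4× images. Relative viability is treated-well nuclei count divided by vehicle-well nuclei count, and values are medians of duplicate plates.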
# Vandetanib + Decitabine = compound: COc1cc2/c(=N/c3ccc(Br)cc3F)nc[nH]c2cc1OCC1CCN(C)CC1 [Vandetanib] + Nc1ncn([C@H]2C[C@H](O)[C@@H](CO)O2)c(=O)n1 [Decitabine] (partner 2 µM)
# Outline: as §1
# CUDC-101 + Trametinib = compound: C#Cc1cccc(Nc2ncnc3cc(OC)c(OCCCCCCC(=O)NO)cc23)c1 [CUDC-101] + CC(=O)Nc1cccc(-n2c(=O)n(C3CC3)c(=O)c3c(Nc4ccc(I)cc4F)n(C)c(=O)c(C)c32)c1 [Trametinib] (partner 0.02 µM)
# Outline: as §1
# [1] = compound: C1=CC=C2C(=C1)N=C(S2)C(C#N)C3=NC(=NC=C3)NCCC4=CN=CC=C4 + O=C(c1cc(Cc2n[nH]c(=O)c3ccccc23)ccc1F)N1CCN(C(=O)C2CC2)CC1 [Olaparib] (partner 8 µM)
# Outline: as §1
Cell Line,relative viability (Vandetanib + Navitoclax; first compound 0.02 µM),relative viability (Vandetanib + Navitoclax; first compound 0.06325 µM),relative viability (Vandetanib + Navitoclax; first compound 0.2 µM),relative viability (Vandetanib + Navitoclax; first compound 0.6325 µM),relative viability (Vandetanib + Navitoclax; first compound 2 µM),relative viability (Vandetanib + Decitabine; first compound 0.02 µM),relative viability (Vandetanib + Decitabine; first compound 0.06325 µM),relative viability (Vandetanib + Decitabine; first compound 0.2 µM),relative viability (Vandetanib + Decitabine; first compound 0.6325 µM),relative viability (Vandetanib + Decitabine; first compound 2 µM),relative viability (CUDC-101 + Trametinib; first compound 0.01 µM),relative viability (CUDC-101 + Trametinib; first compound 0.03162 µM),relative viability (CUDC-101 + Trametinib; first compound 0.1 µM),relative viability (CUDC-101 + Trametinib; first compound 0.3162 µM),relative viability (CUDC-101 + Trametinib; first compound 1 µM),relative viability ([1]; first compound 0.005 µM),relative viability ([1]; first compound 0.01581 µM),relative viability ([1]; first compound 0.05 µM),relative viability ([1]; first compound 0.1581 µM),relative viability ([1]; first compound 0.5 µM)
LOU-NH91,0.709,0.561,0.553,0.535,0.445,0.816,0.734,0.681,0.679,0.66,0.804,0.727,0.738,0.831,0.738,0.914,0.914,0.826,0.888,0.801
LU99A,0.794,0.73,0.734,0.679,0.761,0.804,0.828,0.676,0.834,0.771,0.444,0.539,0.617,0.535,0.374,0.247,0.272,–,0.265,0.232
LXF-289,0.94,0.921,1,0.937,0.934,0.376,0.382,0.362,0.348,0.393,0.689,0.671,0.659,0.605,0.539,0.966,1.13,1.1,1.17,0.979
NCI-H23,0.782,0.8,0.769,0.914,0.688,0.358,0.328,0.346,0.293,0.325,0.338,0.357,0.413,0.373,0.351,–,0.33,0.276,0.303,0.282
NCI-H322M,1.14,1.1,1.24,1.04,1.15,0.688,0.658,0.763,0.718,0.577,0.507,0.477,0.517,0.44,0.411,0.755,0.746,0.779,0.78,0.677
NCI-H441,0.627,0.529,0.754,0.368,0.578,0.243,0.22,0.222,0.277,0.217,0.639,0.439,0.371,0.65,0.41,0.423,0.643,0.544,0.683,0.455
NCI-H460,1.13,0.999,0.0215,1.25,1.09,0.459,0.446,0.338,0.532,0.49,0.108,0.224,0.227,0.182,0.0486,0.4,0.502,0.43,0.516,0.333
NCI-H520,0.946,1.04,1.08,1.07,1.04,0.496,0.483,0.429,0.495,0.502,0.572,0.688,0.788,0.674,0.251,0.302,0.307,0.309,0.321,0.29
NCI-H596,0.942,0.976,1.05,0.94,0.795,0.986,0.98,0.983,0.979,0.978,0.817,0.776,0.848,0.874,0.801,0.599,0.59,0.608,0.632,0.643
NCI-H647,0.943,1.09,1.16,1.17,1.06,0.356,0.396,0.349,0.35,0.41,0.461,0.411,0.543,0.538,0.443,0.423,0.536,0.583,0.572,0.3
NCI-H727,0.45,0.468,0.528,0.449,0.287,0.827,0.798,0.938,0.885,0.492,0.394,0.374,0.418,0.371,0.353,0.734,0.622,0.806,0.746,0.679
NCI-H838,1.13,1.13,1.15,1.12,1.07,0.489,0.399,0.503,0.457,0.451,0.579,0.504,0.544,0.591,0.423,0.622,0.829,0.731,0.773,0.546
NCI-H1355,0.931,0.809,0.577,1.01,1.03,0.351,0.357,0.369,0.339,0.363,0.423,0.399,0.411,0.46,0.317,0.704,0.761,0.764,0.825,0.769
NCI-H1395,1.11,1.06,1.04,1.25,1.29,0.737,0.704,0.655,0.788,0.74,1.13,1.05,1.01,1.19,0.981,0.476,–,0.475,0.457,0.541
NCI-H1437,1.03,1.06,1.16,1.08,1.08,0.534,0.559,0.556,0.551,0.545,0.54,0.528,0.498,0.468,0.263,0.542,0.607,0.65,0.673,0.507
NCI-H1650,1.15,1.02,–,1.1,1.13,0.361,0.451,0.413,0.502,0.403,0.637,0.477,0.494,0.588,0.372,0.718,0.719,0.708,0.882,0.507
NCI-H1651,0.927,1.11,1.08,1.07,0.928,0.609,0.583,0.572,0.628,0.45,0.863,0.786,0.806,0.845,0.8,0.178,0.17,0.172,0.182,0.163
NCI-H1666,0.83,0.861,0.951,0.88,0.46,0.74,0.675,0.731,0.757,0.553,0.842,0.931,0.818,0.911,0.831,0.754,0.761,0.764,0.767,0.681
NCI-H1734,0.854,0.766,0.801,0.804,0.818,0.495,0.494,0.537,0.526,0.513,0.694,0.594,0.761,0.786,0.523,0.509,0.616,0.664,0.633,0.614
NCI-H1755,1.03,0.979,0.968,0.973,0.972,0.71,0.678,0.709,0.763,0.623,0.794,0.761,0.784,0.792,0.812,0.914,0.994,0.881,1.06,0.943
NCI-H1792,0.676,0.573,0.599,0.626,0.609,0.487,0.469,0.698,0.53,0.444,0.607,0.322,0.439,0.453,0.359,–,0.709,0.427,0.38,0.215
NCI-H1793,0.57,0.338,0.488,0.319,0.389,0.424,0.407,0.517,0.401,0.439,0.331,0.347,0.349,0.427,0.44,–,0.931,0.781,0.995,0.804
NCI-H1915,0.769,0.781,0.772,0.794,0.772,0.245,0.255,0.274,0.263,0.248,0.308,0.287,0.305,0.314,0.273,–,0.266,0.249,0.283,0.292
NCI-H1944,1,1.05,1.05,1.01,0.86,0.411,0.489,0.551,0.463,0.447,0.375,0.422,0.415,0.388,0.373,0.358,0.432,0.361,0.41,0.619
NCI-H1975,1.14,1.13,1.13,0.992,1.1,0.399,0.401,0.422,0.419,0.387,0.38,0.322,0.347,0.692,0.319,0.658,0.866,0.78,0.913,0.475
NCI-H1993,0.932,0.942,0.853,0.838,0.789,0.674,0.645,0.628,0.637,0.541,0.474,0.682,0.546,0.527,0.553,0.903,1.06,1.18,0.986,1.06
NCI-H2009,1.12,1.15,1.24,1.19,1.11,0.359,0.394,0.369,0.371,0.325,0.307,0.245,0.274,0.34,0.292,0.667,0.669,0.664,0.438,0.684
